{"source": "patent US10526385B2", "about": "“YAP protein inhibiting polypeptide and application thereof” (BAO KANG BIOMEDICAL HEALTHCARE INC, priority 2013, dated 2020)", "key": {"[1]": {"tested_on": "hepatoma cell line HCCLM3", "type": "cell-based", "conditions": "Table 8; at a concentration of 1% in cell cultivating for 72 h; unit inferred; read-out: IC50 HCCLM3", "method": "(§1) The hepatoma cell line BEL7404 (purchased from The Chinese Academy of Sciences cell bank) was a cell line with high expression of YAP protein; HCCLM3 (purchased from The Chinese Academy of Sciences cell bank) was a cell line with low expression of YAP protein. The hepatoma cell lines (BEL7404 or HCCLM3) were inoculated into a 96-well plate at the concentration of 2000 cells/well, and incubated overnight in RPMI1640 containing 1% bovine serum at 37° C. The hepatoma cell lines were treated with polypeptides having different concentrations at 37° C. for 72 h.\n(§2) Moreover, IC50 values of the cells in 1.1 were determined using CCK-8 kit.\n(§3) The polypeptide represented by SEQ ID NO.:1 was further modified. The IC50 values of the polypeptides at a concentration of 1% in cell cultivating for 72 h were measured."}, "[2]": {"tested_on": "hepatoma cell line BEL7404", "type": "cell-based", "conditions": "Table 8; at a concentration of 1% in cell cultivating for 72 h; unit inferred; read-out: IC50 BEL7404", "method": "as §1, §2, §3"}}, "note": "Where a SMILES comes first, the peptide text is derived from it. Bridges are numbered along the chain shown (N, C = ends). [ ]: non-standard residue; d: D form. Phe(3-Cl) = N[C@@H](Cc1cccc(Cl)c1)C(=O)O; hCys = N[C@@H](CCS)C(=O)O; Nle = CCCC[C@H](N)C(=O)O"}
{"smiles": "CCCC[C@@H]1NC(=O)[C@H](CCCCN)NC(=O)[C@H](CCCCN)NC(=O)[C@H](CC(C)C)NC(=O)[C@@H](NC(=O)[C@H](Cc2cccc(Cl)c2)NC(=O)[C@@H]2CCCN2C(=O)[C@@H](N)C(C)C)CCSSC[C@@H](C(=O)N[C@@H](CCCCN)C(=O)N2CCC[C@H]2C(=O)N2CCC[C@H]2C(=O)N[C@@H](CCCNC(=N)N)C(=O)N[C@@H](CCCNC(=N)N)C(=O)N[C@@H](CCSC)C(=O)N[C@@H](CCCCN)C(=O)N[C@@H](Cc2c[nH]c3ccccc23)C(=O)N[C@@H](CCCCN)C(=O)N[C@@H](CCCCN)C(=O)O)NC(=O)[C@H](Cc2ccccc2)NC(=O)[C@H](CO)NC(=O)[C@H](CC(=O)O)NC(=O)[C@@H]2CCCN2C1=O", "note": "[compound 27] (H-VP[Phe(3-Cl)][hCys]LKK[Nle]PDSFCKPPRRMKWKK-OH; disulfide 4-13)", "values": [{"measurement": "IC50", "setting": "[1]", "result": "< 1000", "unit": "µM"}, {"measurement": "IC50", "setting": "[2]", "result": "60.2 ± 15.2", "unit": "µM"}]}
{"smiles": "CCCC[C@@H]1NC(=O)[C@@H](NC(=O)[C@H](Cc2cccc(Cl)c2)NC(=O)[C@@H]2CCCN2C(=O)[C@@H](N)C(C)C)CCSSC[C@@H](C(=O)N[C@@H](CCCCN)C(=O)N2CCC[C@H]2C(=O)N2CCC[C@H]2C(=O)N[C@@H](CCCNC(=N)N)C(=O)N[C@@H](CCCNC(=N)N)C(=O)N[C@@H](CCSC)C(=O)N[C@@H](CCCCN)C(=O)N[C@@H](Cc2c[nH]c3ccccc23)C(=O)N[C@@H](CCCCN)C(=O)N[C@@H](CCCCN)C(=O)O)NC(=O)[C@H](Cc2ccccc2)NC(=O)[C@H](CO)NC(=O)[C@H](CC(=O)O)NC(=O)[C@@H]2CCCN2C(=O)[C@H](CCCC)NC(=O)[C@H](CCCCN)NC(=O)[C@H](CCCCN)NC1=O", "note": "[compound 28] (H-VP[Phe(3-Cl)][hCys][Nle]KK[Nle]PDSFCKPPRRMKWKK-OH; disulfide 4-13)", "values": [{"measurement": "IC50", "setting": "[1]", "result": "198 ± 19.6", "unit": "µM"}, {"measurement": "IC50", "setting": "[2]", "result": "55.4 ± 6.3", "unit": "µM"}]}
{"smiles": "CCCC[C@@H]1NC(=O)[C@H](CCCCN)NC(=O)[C@H](CCCCN)NC(=O)[C@H](CC(C)C)NC(=O)[C@@H](NC(=O)[C@H](Cc2cccc(Cl)c2)NC(=O)[C@@H]2CCCN2C(=O)[C@@H](N)C(C)C)CCSSC[C@@H](C(=O)N[C@@H](CCCCN)C(=O)N2CCC[C@H]2C(=O)N2CCC[C@H]2C(=O)N[C@@H](CCCNC(=N)N)C(=O)N[C@@H](CCCNC(=N)N)C(=O)N[C@@H](CCSC)C(=O)N[C@@H](CCCCN)C(=O)N[C@@H](Cc2c[nH]c3ccccc23)C(=O)N[C@@H](CCCCN)C(=O)N[C@@H](CCCCN)C(=O)O)NC(=O)[C@H](Cc2ccccc2)NC(=O)[C@H](CO)NC(=O)[C@H](CCC(=O)O)NC(=O)[C@@H]2CCCN2C1=O", "note": "[compound 29] (H-VP[Phe(3-Cl)][hCys]LKK[Nle]PESFCKPPRRMKWKK-OH; disulfide 4-13)", "values": [{"measurement": "IC50", "setting": "[1]", "result": "254 ± 12.3", "unit": "µM"}, {"measurement": "IC50", "setting": "[2]", "result": "65.6 ± 8.9", "unit": "µM"}]}
{"smiles": "CCCC[C@@H]1NC(=O)[C@H](CCCCN)NC(=O)[C@H](CCCCN)NC(=O)[C@H](CC(C)C)NC(=O)[C@@H](NC(=O)[C@H](Cc2cccc(Cl)c2)NC(=O)[C@@H]2CCCN2C(=O)[C@@H](N)C(C)C)CSSCC[C@@H](C(=O)N[C@@H](CCCCN)C(=O)N2CCC[C@H]2C(=O)N2CCC[C@H]2C(=O)N[C@@H](CCCNC(=N)N)C(=O)N[C@@H](CCCNC(=N)N)C(=O)N[C@@H](CCSC)C(=O)N[C@@H](CCCCN)C(=O)N[C@@H](Cc2c[nH]c3ccccc23)C(=O)N[C@@H](CCCCN)C(=O)N[C@@H](CCCCN)C(=O)O)NC(=O)[C@H](Cc2ccccc2)NC(=O)[C@H](CO)NC(=O)[C@H](C)NC(=O)[C@@H]2CCCN2C1=O", "note": "[compound 30] (H-VP[Phe(3-Cl)]CLKK[Nle]PASF[hCys]KPPRRMKWKK-OH; disulfide 4-13)", "values": [{"measurement": "IC50", "setting": "[1]", "result": "142 ± 9.4", "unit": "µM"}, {"measurement": "IC50", "setting": "[2]", "result": "28.2 ± 1.8", "unit": "µM"}]}
